These results are taken from PMC10321483 (Chemical Science, 2023).

For one test, the target named is T1, BlaC (Mycobacterium tuberculosis, UniProt P9WKD3).
T1 construct: made in house; host or cells: E. coli
As to the kind of experiment: BlaC fluorogenic inhibition assay with FC5 (dose-response). Type of test: biochemical. As to the method: Two types of controls were used. […] In control 2, the BlaC mixture was substituted with the assay buffer. This mixture was incubated for 30 minutes at room temperature without shaking. […] Data were analysed using ActivityBase (IDBS).

The target in test [1] is T2, LdtMt2 (Mycobacterium tuberculosis, UniProt I6Y9J2). As to the kind of experiment: biochemical. In kind it is biochemical. Details: made in house; host or cells: E. coli.
T2 sequence (I6Y9J2 56-408): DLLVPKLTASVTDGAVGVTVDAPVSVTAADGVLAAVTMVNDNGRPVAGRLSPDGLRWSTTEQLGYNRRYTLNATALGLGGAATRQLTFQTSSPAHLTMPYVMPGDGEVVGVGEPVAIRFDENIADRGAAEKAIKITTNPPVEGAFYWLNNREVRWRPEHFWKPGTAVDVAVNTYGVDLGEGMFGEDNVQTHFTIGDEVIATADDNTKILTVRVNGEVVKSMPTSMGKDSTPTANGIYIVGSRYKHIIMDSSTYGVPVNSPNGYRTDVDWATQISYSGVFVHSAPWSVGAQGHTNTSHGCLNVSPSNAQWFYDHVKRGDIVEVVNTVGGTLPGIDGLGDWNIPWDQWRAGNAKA
The target of test [2] is T2, LdtMt2. Kind of test: biochemical. To be noted: for Tm: melting point of LdtMt2 after pre-incubation with the compound: pH 7.5, in °C (unit assumed). Type of test: binding. Details: made in house; host or cells: E. coli. As to the method: LdtMt2 (5 μM) was incubated with the inhibitor (500 μM) in assay buffer (50 mM tris pH 7.5) for 30 minutes at room temperature in 96-well white PCR plates (25 μL final volume, Starlab). SYPRO Orange (final concentration 6×, according to manufacturer's definition, Invitrogen) was then added and the plate was sealed using a transparent plastic film (Polyolefin StarSeal, Starlab). Fluorescence was monitored (with λex = 492 nm and λem = 610 nm) using a CFX96 Touch Real-Time PCR Detection System (Bio-Rad), while the temperature was increased from 20 to 95 °C in increments of 0.2 °C. Melting temperatures (Tms) were determined using the CFX Maestro Software (Bio-Rad).

[3] abbreviates: Table S3 tool compounds, 10 min incubation, 2.5 nM BlaC, 2.5 µM FC5, n=4, read-out: pIC50 BlaC (mean ± SD) (converted).
Where [4] appears, read: Table S4 HTS validation, 30 minutes inhibitor pre-incubation, n=6, read-out: pIC50 LdtMt2 (mean ± SD) (converted).
Setting [5] is: Table S4 HTS validation, 30 minutes inhibitor pre-incubation, n=8, read-out: pIC50 BlaC (mean ± SD) (converted).
The mark [6] stands for this setting: Table S3 tool compounds, 10 min incubation, 2.5 nM BlaC, 2.5 µM FC5, n=4.
The mark [7] stands for this setting: Table S4 HTS validation, 30 minutes inhibitor pre-incubation, n=6.

Molecules are shown by their SMILES. Where “and” joins values, the source holds several entries; their conditions need not be identical. Identical values can stand only once. Like-named read-outs stand apart in the source and are kept apart here.

T1 sequence (P9WKD3 35-307): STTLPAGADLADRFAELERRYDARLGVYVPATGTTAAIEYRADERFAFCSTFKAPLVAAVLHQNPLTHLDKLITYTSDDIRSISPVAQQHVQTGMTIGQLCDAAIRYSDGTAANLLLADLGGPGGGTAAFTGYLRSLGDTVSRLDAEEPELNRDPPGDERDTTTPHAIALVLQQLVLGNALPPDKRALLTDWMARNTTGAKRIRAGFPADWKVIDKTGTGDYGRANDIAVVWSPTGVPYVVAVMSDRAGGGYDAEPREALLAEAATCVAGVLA

As for `O=[Se](O)c1ccccc1` [Benzeneseleninic acid, reference compound], the IC50 at BlaC (setting [3]) is more than 100000 nM; at LdtMt2 [1] (setting [4]), 3550 nM; against LdtMt2 [1] (pIC50 LdtMt2 (mean ± SD)), 10000 nM.
Take `C[C@@H](O)[C@H]1C(=O)N2C(C(=O)[O-])=C(SC3Cn4cnc[n+]4C3)[C@H](C)[C@H]12` (stereo partly drawn) [Biapenem, reference compound]: the IC50 was 3090 nM on BlaC (setting [3]), 479 nM at BlaC (setting [5]), 2880 nM on LdtMt2 [1] (setting [4]) and 79400 nM against LdtMt2 [1] (pIC50 LdtMt2 (mean ± SD)).
Take `CC1(C)S[C@@H]2[C@H](NC(=O)C(C(=O)O)c3ccccc3)C(=O)N2[C@H]1C(=O)O` (stereo partly drawn) [Carbenicillin, reference compound]: the IC50 at BlaC (setting [3]) and against LdtMt2 [1] (pIC50 LdtMt2 (mean ± SD)) was more than 100000 nM each time.
Regarding `CO/N=C(\C(=O)N[C@@H]1C(=O)N2C(C(=O)O)=C(COC(C)=O)CS[C@H]12)c1csc(N)n1` [Cefotaxime, reference compound], the IC50 on BlaC (setting [3]) and at LdtMt2 [1] (pIC50 LdtMt2 (mean ± SD)) was more than 100000 nM throughout.
Take `CC(C)(O/N=C(\C(=O)N[C@@H]1C(=O)N2C(C(=O)[O-])=C(C[n+]3ccccc3)CS[C@H]12)c1csc(N)n1)C(=O)O` [Ceftazidime]: the IC50 was 39800 nM on BlaC (setting [3]), 12000 nM on BlaC (setting [5]) and more than 100000 nM against LdtMt2 [1] (pIC50 LdtMt2 (mean ± SD)).
For `CO/N=C(\C(=O)N[C@@H]1C(=O)N2C(C(=O)O)=C(CSC(=O)c3ccco3)CS[C@H]12)c1csc(N)n1` [Ceftiofur, reference compound], the IC50 at BlaC (setting [3]) and against LdtMt2 [1] (pIC50 LdtMt2 (mean ± SD)) was more than 100000 nM in each case.
As to `Cc1ccc(C=CC(=O)N2CC(=O)Nc3ccccc32)o1` [Compound 10], on LdtMt2 [1], the “LE (ligand efficiency)” value stood at 0.54.
Consider `Cc1ccccc1NC(=O)C=CC(N)=O` [Compound 14], for which the “pIC50 BlaC” value at BlaC (Table S5 HTS hits, 30 minute inhibitor pre-incubation, two independent repeats) is recorded as less than 4.0. Also, the “LE (ligand efficiency)” value at LdtMt2 [1] is reported as 0.75. For the same molecule, at LdtMt2 [2], the “ΔTm: difference in melting point of LdtMt2 relative to unreacted LdtMt2 (43.8 °C)” value was “+1.1” and the “Tm: melting point of LdtMt2 after pre-incubation with the compound” value is reported as 44.9 ± 0.09.
`N#Cn1c(-c2ccncc2)nc2ccc(-c3cccnc3)cc21` [Compound 35]: the “LE (ligand efficiency)” value at LdtMt2 [1] is listed as 0.49. On LdtMt2 [2], the “ΔTm: difference in melting point of LdtMt2 relative to unreacted LdtMt2 (43.8 °C)” value is reported as -0.9 and the “Tm: melting point of LdtMt2 after pre-incubation with the compound” value amounted to 42.9 ± 0.34.
On to `N#Cn1ccnc1` [Compound 41, reference compound], for which the “pIC50 LdtMt2” value on LdtMt2 [1] was determined as 6.54 ± 0.01.
Regarding `N#Cn1nnc2ccccc21` [Compound 42, reference compound], the “pIC50 LdtMt2” value at LdtMt2 [1] came to 6.02 ± 0.05.
`CN(C)c1cc[n+](C#N)cc1` [Compound 43, 1-cyano-4-dimethylaminopyridinium tetrafluoroborate, reference compound] showed an IC50 against LdtMt2 [1] (pIC50 LdtMt2) of 5010 nM.
Take `N#CSc1ccc([N+](=O)[O-])c(C(=O)O)c1` [Compound 44, 2-nitro-5-thiocyanobenzoic acid, reference compound]: on LdtMt2 [1] (Table S10 known cyanating compounds, read-out: pIC50 LdtMt2 (converted)), the IC50 is 1450 nM.
Consider `C[C@@H](O)[C@H]1C(=O)N2C(C(=O)O)=C(S[C@@H]3CN[C@H](CNS(N)(=O)=O)C3)[C@H](C)[C@H]12` [Doripenem, reference compound], for which the IC50 at BlaC (setting [3]) is 41.7 nM; at BlaC (setting [5]), 14.1 nM; against LdtMt2 [1] (pIC50 LdtMt2 (mean ± SD)), 5010 nM and 1700 nM.
`O=c1c2ccccc2[se]n1-c1ccccc1` [Ebselen]: the IC50 was 1510 nM at BlaC (setting [3]), 302 nM at BlaC (setting [5]) and 214 nM at LdtMt2 [1] (setting [4]).
`C[C@@H](O)[C@H]1C(=O)N2C(C(=O)O)=C(S[C@@H]3CN[C@H](C(=O)Nc4cccc(C(=O)O)c4)C3)[C@H](C)[C@H]12` [Ertapenem, reference compound]: the IC50 was 178 nM at BlaC (setting [3]), 67.6 nM at BlaC (setting [5]), 776 nM at LdtMt2 [1] (setting [4]) and 1580 nM at LdtMt2 [1] (pIC50 LdtMt2 (mean ± SD)).
`C[C@@H](O)[C@H]1C(=O)N2C(C(=O)O)=C([C@H]3CCCO3)S[C@H]12` [Faropenem]: the IC50 at BlaC (setting [3]) is 447 nM; on BlaC (setting [5]), 468 nM.
Turning to `Cc1onc(-c2c(F)cccc2Cl)c1C(=O)N[C@@H]1C(=O)N2[C@@H]1SC(C)(C)[C@@H]2C(=O)O` [Flucloxacillin, reference compound], the IC50 at BlaC (setting [3]) is 135 nM; on BlaC (setting [5]), 77.6 nM; at LdtMt2 [1] (setting [4]), 1050 nM; on LdtMt2 [1] (pIC50 LdtMt2 (mean ± SD)), 25100 nM.
For the molecule `NC(=O)CI` [Iodoacetamide, reference compound], the “pIC50 BlaC (mean ± SD)” value on BlaC (setting [6]) is listed as less than 4.0. Besides, the “pIC50 LdtMt2 (mean ± SD)” value at LdtMt2 [1] stood at 5.8 ± 0.03; against LdtMt2 [1] (setting [7]), 6.05 ± 0.03.
Turning to `O=C1C=CC(=O)N1` [Maleimide, reference compound], the IC50 against BlaC (pIC50 BlaC (mean ± SD), Table S3 tool compounds, 10 min incubation, 2.5 nM BlaC, 2.5 µM FC5, n=4) is more than 100000 nM; on LdtMt2 [1] (pIC50 LdtMt2 (mean ± SD)), 3980 nM and 2240 nM.
For `C[C@@H](O)[C@H]1C(=O)N2C(C(=O)O)=C(S[C@@H]3CN[C@H](C(=O)N(C)C)C3)[C@H](C)[C@H]12` [Meropenem, reference compound], the IC50 at BlaC (setting [3]) was 141 nM; at BlaC (setting [5]), 40.7 nM; on LdtMt2 [1] (setting [4]), 1350 nM; at LdtMt2 [1] (pIC50 LdtMt2 (mean ± SD)), 10000 nM.
Regarding `Cc1onc(-c2ccccc2)c1C(=O)N[C@@H]1C(=O)N2[C@@H]1SC(C)(C)[C@@H]2C(=O)O` [Oxacillin, reference compound], the IC50 at BlaC (setting [3]) was 158 nM; at BlaC (setting [5]) it was 67.6 nM; at LdtMt2 [1] (setting [4]), 6030 nM; on LdtMt2 [1] (pIC50 LdtMt2 (mean ± SD)), 63100 nM.
With `CCC(C)SSc1ncc[nH]1` (stereo not drawn) [PX-12, reference compound], at BlaC (setting [6]), the “pIC50 BlaC (mean ± SD)” value is given as less than 4.0. Also, the “pIC50 LdtMt2 (mean ± SD)” value at LdtMt2 [1] was 5.9 ± 0.01 and 6.09 ± 0.03.
As to `CC(=N)N1CC[C@H](SC2=C(C(=O)O)N3C(=O)[C@H]([C@@H](C)O)[C@H]3C2)C1` [Panipenem, reference compound], the IC50 at BlaC (setting [3]) is 166 nM; on BlaC (setting [5]), 93.3 nM; at LdtMt2 [1] (setting [4]), 1230 nM; at LdtMt2 [1] (pIC50 LdtMt2 (mean ± SD)) it was 316 nM.
Turning to `O=C(NC1CCNCC1)[C@@H]1CC[C@@H]2CN1C(=O)N2OS(=O)(=O)O` [Relebactam], the IC50 is 33100 nM at BlaC (setting [3]), 3980 nM at BlaC (setting [5]) and more than 100000 nM at LdtMt2 [1] (pIC50 LdtMt2 (mean ± SD)).
Turning to `C[C@@H](O)[C@H]1C(=O)N2C(C(=O)O)=C(S[C@H]3CC[S@@+]([O-])C3)S[C@H]12` [Sulopenem, reference compound], the “pIC50 BlaC (mean ± SD)” value on BlaC (setting [6]) was 6.60 ± 0.12; against BlaC (Table S4 HTS validation, 30 minutes inhibitor pre-incubation, n=8), 6.86 ± 0.02. Besides, the “pIC50 LdtMt2 (mean ± SD)” value turned out to be 6.2 ± 0.03 against LdtMt2 [1] and 6.35 ± 0.02 at LdtMt2 [1] (setting [7]).
Regarding `CN(C)C(=S)SSC(=S)N(C)C` [Thiram, reference compound], the IC50 at BlaC (setting [3]) was more than 100000 nM; at LdtMt2 [1] (setting [4]), 170 nM; against LdtMt2 [1] (pIC50 LdtMt2 (mean ± SD)), 158 nM.
Regarding `CC1(C)S[C@@H]2[C@H](NC(=O)[C@H](C(=O)O)c3ccsc3)C(=O)N2[C@H]1C(=O)O` [Ticarcillin, reference compound], the IC50 at BlaC (setting [3]) was 11700 nM; on BlaC (setting [5]) it was 14500 nM; on LdtMt2 [1] (setting [4]) it was 44700 nM; on LdtMt2 [1] (pIC50 LdtMt2 (mean ± SD)), more than 100000 nM.
Consider `O=C(NNC(=O)[C@@H]1CC[C@@H]2CN1C(=O)N2OS(=O)(=O)O)[C@@H]1CCCNC1` [Zidebactam, reference compound], for which the IC50 at BlaC (setting [3]) was 70800 nM; at BlaC (setting [5]), 7240 nM; on LdtMt2 [1] (setting [4]), 13200 nM; against LdtMt2 [1] (pIC50 LdtMt2 (mean ± SD)), 100000 nM.
